One data set concerns SW620 tumors. Put plainly: Subcutaneous xenograft tumor growth. The class given is in vivo, Swiss nu/nu mice. The protocol: All procedures including animal use were performed in accordance with the Institutional Ethical Committee of Animal Care in Geneva and the Swiss Cantonal Veterinary Office (Authorization number GE‐136‐19). Briefly, female and male Swiss nu/nu mice aged 6–8 weeks were obtained from Charles River (Écully, France). For subcutaneous xenografts mice were inoculated in the left flank with 5x10^6 DLD1 or SW620 cells suspended in 100 µL of cell culture medium, supplemented with 1% FBS. Treatment was initiated when palpable tumors had formed (approximately 30 mm^3) on day 4 for DLD1 and day 5 for the SW620 model.
Treatment was initiated once tumor growth was confirmed with bioluminescence measurements. Drugs were administered through oral gavage based on average body weight of the males (100 µL/mouse) and females (80 µL/mouse) at various concentrations, see Tables S10 and S11.
Solution A: step (1) 30% PEG 400 + 5% propylene glycol + 0.5% Tween 80 and (2) 64.5% sterile H2O. Solution B: step (1) 10% DMSO, (2) 30% PEG 300 + 5% Tween 80 and (3) 55% sterile H2O. Vemurafenib was prepared 2x concentrated (half or three/sixth of total solution), and the remaining drugs were prepared 6x concentrated (one/sixth of total solution), after which drugs were diluted to prepare 1x drug concentrations for the ODC or single drugs using the other drugs or complete solvent solutions without drugs for lower concentrations. FOLFOX was administered as 6 mg/kg oxaliplatin two hours before administration of 90 mg/kg leucovorin and 50 mg/kg (DLD1) or 25 mg/kg (SW620) 5‐fluorouracil at day 1 and a repeat of 5‐fluorouracil dosing on day 2.
The Bliss independence model can be used to evaluate the drug interaction potential of a drug mixture. The model is based on the principle that each drug has an independent drug mechanism of action, but all contribute to a common result (e.g., cell death or tumor volume inhibition). The model is based on the probability theory and requires the drug activity of each drug at the selected dose to predict the inhibition rate (IR) at additive doses. For in vivo tumor volume results, we predicted the IR based on the fraction of tumor volume remaining after single‐drug treatment of each of the drugs vs 100% CTRL (F1,2,3,4), using the following formula: IR = […].

Data set [1] can be described thus: Serum and intratumor drug concentration at experimental endpoint, DLD1 model. The class given is in vivo, mice. As to conditions: for concentration at 1 h / Kp at 1 h: Swiss Nu/nu, mouse, oral; for concentration at 1 h: 1h post-treatment at endpoint (day 15); for Kp at 1 h: tumor vs serum, read-out: ratio tumor vs serum; for Kp at 1 h / ratio ODC vs single drug: DLD1 model. On the procedure:
At the experimental endpoint, plasma and tumors were collected 1h post‐treatment and part of the tumor tissue was used to determine the intratumor drug concentrations. Plasma and tumor samples were analyzed using the same LC‐MS/MS method used for drug determination in DBS. Before analysis, tumor tissues were homogenized in a 1 mL mixture of water/acetonitrile (30/70). Hundred uL of homogenates were transferred into new tubes and 50 µL of acetonitrile, as well as 50 µL of a mix of internal standards in MeOH were added. Tubes were vortexed and centrifuged for 10 min at 9,000 rpm. The supernatant (100 µL) was evaporated under nitrogen and reconstituted in 100 µL of acetonitrile with 0.1% formic acid/water with 0.1% formic acid (30/70). 10 µL was then injected into the LC‐MS/MS system. Plasma samples were spotted onto the same paper used for whole blood analysis and were extracted and analyzed using the same methods as used for DBS.

Data set [2] can be described thus: Pharmacokinetics, dried blood spot LC-MS/MS, mice with SW620 tumors. The class given is in vivo. Conditions: for Tmax / AUC(0-t) / Cmax: Swiss Nu/nu, mouse, whole blood (dried blood spot), po, regorafenib 30, vemurafenib 75, GDC-0994 10 mg/kg; for AUC(0-t) / Cmax: whole blood, mean ± SD; for AUC(0-t): oral, read-out: AUC0-24h; for increase of AUC as part of the ODC vs single-drug treatment: mice bearing SW620 tumors, AUC0-24h. On the procedure: The pharmacokinetic (PK) study was performed using the dried blood spot method. Mice were treated with CTRL, ODCs, and corresponding monotherapies as described above. To determine the disposition in blood in the first 24h, blood samples (5 µL/mouse) were collected from the tail vein (n = 4 mice) at 2h, 4h, 8h, and 24h time points and transferred onto paper (a filter paper 903 protein saver card from Whatman (MA, USA)). A disk with the entire spot was punched from the paper card and transferred to the HPLC vial tube. Hundred µL of MeOH containing a mix of internal standards was added, and the tube was vortex‐mixed for about 1 min before injecting 10 µL into the LC‐MS/MS system. The LC‐MS/MS system consisted of an API 4,000 triple quadrupole mass spectrometer (AB sciex, Concord, ON, Canada) controlled by analyst 1.6.1 software. The mass spectrometer was operated in the multiple reaction monitoring (MRM) mode with positive electrospray ionization. The instrument was coupled with an Agilent series 1100 (Waldbronn, Germany) LC system. Chromatography was performed on a Phenomenex Kinetex C18 analytical column (50 mm x 2.1 mm, 2.6 um; Torrance, CA, USA). The flow rate was 0.5 mL/min using gradient elution conditions. The method was fully validated before application to this pharmacokinetic study.

[3] abbreviates: regorafenib 30 mg/kg, Exp 4, Day 22.
[4] abbreviates: regorafenib 30 mg/kg, Exp 6, Day 20.
The mark [5] stands for this setting: regorafenib 30 mg/kg, Exp 8, Day 19.
Setting [6] is: serum, as part of ODC, regorafenib 15, erlotinib 12.5, selumetinib 5, vemurafenib 75 mg/kg, read-out: concentration serum.
The mark [7] stands for this setting: serum, single drug, regorafenib 15, erlotinib 12.5, selumetinib 5, vemurafenib 75 mg/kg, read-out: concentration serum.
[8] abbreviates: tumor (DLD1), as part of ODC, DLD1 tumor, doses as E156, read-out: concentration tumor.
Where [9] appears, read: tumor (DLD1), single drug, DLD1 tumor, doses as E156, read-out: concentration tumor.
Where [10] appears, read: given as part of SW620-specific ODC.
The mark [11] stands for this setting: selumetinib 0.2 mg/kg, Exp 6, Day 20.
[12] abbreviates: selumetinib 0.2 mg/kg, Exp 8, Day 19.
Setting [13] is: selumetinib 1 mg/kg, Exp 4, Day 22.
[14] abbreviates: selumetinib 10 mg/kg, Exp 4, Day 22.
Setting [15] is: vemurafenib 75 mg/kg, Exp 6, Day 20.

Read-outs that look alike come from different tables or passages of the source.

For `CNC(=O)c1cc(Oc2ccc(NC(=O)Nc3ccc(Cl)c(C(F)(F)F)c3)c(F)c2)ccn1` [regorafenib], the “% CTRL (tumor volume)” value in the data set on SW620 tumors (setting [3]) is 117 45 20 % CTRL; with SW620 tumors (setting [4]), 90 78 35 % CTRL; in the data set on SW620 tumors (setting [5]), 44 18 10 % CTRL. Also, the figures for the Volume in the data set on SW620 tumors (setting [3]), with SW620 tumors (setting [4]) and in the data set on SW620 tumors (setting [5]) were 567 220 98 mm^3, 468 407 182 mm^3 and 278 111 64 mm^3, respectively. Further, the concentration at 1 h in data set [1] (setting [6]) worked out at 1830 ± 540 ng/mL; in data set [1] (setting [7]), 880 ± 250 ng/mL; in data set [1] (setting [8]) it was 8670 ± 5530 ng/g; in data set [1] (setting [9]), 1540 ± 680 ng/g. Moreover, the Kp at 1 h was found to be 4.74 in data set [1] (as part of ODC) and 1.76 in data set [1] (single drug). In addition, the “ratio ODC vs single drug” value in data set [1] (serum) is 2.09; in data set [1] (tumor), 5.62. Moreover, the Tmax in data set [2] (setting [10]) and in data set [2] (mono) was 4 h in each case. For the same compound, the AUC(0-t) is 22200 ± 1830 ng·h/mL in data set [2] (setting [10]) and 9860 ± 1930 ng·h/mL in data set [2] (mono). In addition, the values for the Cmax in data set [2] (setting [10]) and in data set [2] (mono) were 1610 ± 220 ng/mL and 710 ± 260 ng/mL, respectively. In data set [2], the “increase of AUC as part of the ODC vs single-drug treatment” value (“increase of AUC as part of the ODC” below) was 2.2 x.
In the case of `Cn1cnc2c(F)c(Nc3ccc(Br)cc3Cl)c(C(=O)NOCCO)cc21` [selumetinib], the “% CTRL (tumor volume)” value was 76 41 21 % CTRL in the data set with SW620 tumors (setting [11]), 93 5 3 % CTRL in the data set with SW620 tumors (setting [12]), 67 55 24 % CTRL in the data set with SW620 tumors (setting [13]) and 43 20 9 % CTRL in the data set with SW620 tumors (setting [14]). The Volume in the data set with SW620 tumors (setting [11]) is given as 393 214 107 mm^3; with SW620 tumors (setting [12]), 588 30 21 mm^3; in the data set on SW620 tumors (setting [13]), 323 265 118 mm^3; with SW620 tumors (setting [14]), 209 95 43 mm^3. Further, the concentration at 1 h in data set [1] (setting [6]) is 3490 ± 900 ng/mL; in data set [1] (setting [7]), 2500 ± 1080 ng/mL; in data set [1] (setting [8]) it was 4530 ± 1950 ng/g; in data set [1] (setting [9]), 1980 ± 660 ng/g. Also, the figures for the Kp at 1 h in data set [1] (as part of ODC) and in data set [1] (single drug) were 1.3 and 0.79, respectively. Moreover, the Tmax in data set [2] (setting [10]) and in data set [2] (mono) was 2 h in each case. Besides, the AUC(0-t) in data set [2] (setting [10]) worked out at 890 ± 130 ng·h/mL; in data set [2] (mono), 770 ± 140 ng·h/mL. Besides, the Cmax worked out at 230 ± 80 ng/mL in data set [2] (setting [10]) and 240 ± 80 ng/mL in data set [2] (mono). Further, the “increase of AUC as part of the ODC” value in data set [2] is reported as 1.2 x.
Take `CCCS(=O)(=O)Nc1ccc(F)c(C(=O)c2c[nH]c3ncc(-c4ccc(Cl)cc4)cc23)c1F` [vemurafenib]: the “% CTRL (tumor volume)” value in the data set on SW620 tumors (setting [15]) is 65 42 21 % CTRL; with SW620 tumors (vemurafenib 75 mg/kg, Exp 8, Day 19) it was 94 48 58 % CTRL. In the data set on SW620 tumors (setting [15]), the Volume was 337 219 109 mm^3. Further, the concentration at 1 h in data set [1] (setting [6]) came out at 910 ± 380 ng/mL; in data set [1] (setting [7]), 620 ng/mL; in data set [1] (setting [8]) it was 1650 ± 1000 ng/g; in data set [1] (setting [9]) it was 790 ng/g. Further, the Kp at 1 h in data set [1] (as part of ODC) was 1.81; in data set [1] (single drug), 1.28. For the same compound, the “ratio ODC vs single drug” value stood at 1.48 in data set [1] (serum) and 2.09 in data set [1] (tumor). Further, the time of peak concentration (Tmax) came to 4 h in data set [2] (setting [10]) and 2 h in data set [2] (mono). Further, the AUC(0-t) amounted to 48200 ± 5720 ng·h/mL in data set [2] (setting [10]) and 19400 ± 3250 ng·h/mL in data set [2] (mono). Moreover, the values for the Cmax in data set [2] (setting [10]) and in data set [2] (mono) were 4710 ± 650 ng/mL and 2560 ± 640 ng/mL, respectively. In addition, in data set [2], the “increase of AUC as part of the ODC” value amounted to 2.5 x.

What is called Tmax is the time at which the peak concentration occurs. As a reminder, the Cmax is the maximum level reached in the sampled fluid or tissue.

For the origin of these results see article PMC7607171, “Optimized low‐dose combinatorial drug treatment boosts selectivity and efficacy of colorectal carcinoma treatment” (Molecular Oncology, 2020).
